The supplement of paper PMC10307832

What follows are cell lines tested with CC(C)CCN1c2nc(Nc3cc(F)c(O)c(F)c3)ncc2N(C)C(=O)C1C [BI-D1870] + Cc1cc(Nc2cc(N3CCN(C)CC3)nc(Sc3ccc(NC(=O)C4CC4)cc3)n2)n[nH]1 [Tozasertib] (partner 0.1 µM) (assay: relative viability (nuclei count vs DMSO), 5 days (fraction); higher = more cells survive). Details: first compound 0.04 µM.
Procedure, shortened: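 Lung cancer cell lines in 1536-well plates were dosed by pin tool the day after seeding, either with one drug alone or with a fixed anchor-drug dose plus five library-drug doses (not always all listed) in √10 steps. After 5 days, cells were fixed and their nuclei stained in one step (final 0.05% Triton X-100, 1% formaldehyde, 1 ug/ml Hoechst), then counted on 4× images. Relative viability is the nuclei count in treated wells divided by that in vehicle wells. Values are medians of duplicate plates.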
Cell Line LK-2 has a relative viability of 0.146. NCI-H2087 was tested, and the relative viability was 0.217. For H3255, the relative viability was 0.641. For LOU-NH91, the relative viability was 0.688. NCI-H2170 was tested, and the relative viability was 0.701. In the case of NCI-H2405, the relative viability is reported as 0.837. With HOP-62 the relative viability was 0.371. LU99A showed a relative viability of 0.274. BEN was tested, and the relative viability was 0.557. HARA gave a relative viability of 0.129. HCC-78 gave a relative viability of 0.455. Work on NCI-H322M yielded a relative viability of 0.494. LCLC-97TM1 gave a relative viability of 0.302. A-427 showed a relative viability of 0.202. NCI-H441 was tested, and the relative viability was 0.56. Cell Line NCI-H1734 has a relative viability of 0.249. For NCI-H460, the relative viability was 0.467. Cell Line NCI-H2347 has a relative viability of 0.635. NCI-H1395 was tested, and the relative viability was 0.818. 201T showed a relative viability of 0.993. In the case of NCI-H1915, the relative viability is reported as 0.466. With HCC-827 the relative viability was 0.421. For LXF-289, the relative viability was 0.173. Cell Line NCI-H23 has a relative viability of 0.433. NCI-H647 was tested, and the relative viability was 0.399. With CAL-12T the relative viability was 0.324. For NCI-H1651, the relative viability was 0.9. For EPLC-272H, the relative viability was 0.37. In the case of NCI-H1355, the relative viability is reported as 0.598. NCI-H3122 showed a relative viability of 0.456. With NCI-H1437 the relative viability was 0.432. NCI-H1755 gave a relative viability of 0.59.

Same assay, conditions: first compound 0.1265 µM
In the case of LK-2, the relative viability is reported as 0.175. For NCI-H2087, the relative viability was 0.212. With H3255 the relative viability was 0.57. LOU-NH91 was tested, and the relative viability was 0.536. In the case of NCI-H2170, the relative viability is reported as 0.715. Work on NCI-H2405 yielded a relative viability of 0.697. HOP-62 gave a relative viability of 0.371. LU99A showed a relative viability of 0.253. BEN gave a relative viability of 0.618. HARA gave a relative viability of 0.101. For HCC-78, the relative viability was 0.355. NCI-H322M showed a relative viability of 0.508. In the case of LCLC-97TM1, the relative viability is reported as 0.289. Cell Line A-427 has a relative viability of 0.213. In the case of NCI-H441, the relative viability is reported as 0.531. With NCI-H1734 the relative viability was 0.263. Cell Line NCI-H460 has a relative viability of 0.0966. With NCI-H2347 the relative viability was 0.501. NCI-H1395 gave a relative viability of 0.685. In the case of 201T, the relative viability is reported as 0.905. Work on NCI-H1915 yielded a relative viability of 0.395. With HCC-827 the relative viability was 0.401. In the case of LXF-289, the relative viability is reported as 0.211. NCI-H23 was tested, and the relative viability was 0.26. With NCI-H647 the relative viability was 0.251. For CAL-12T, the relative viability was 0.317. NCI-H1651 showed a relative viability of 0.487. EPLC-272H gave a relative viability of 0.242. NCI-H1355 showed a relative viability of 0.528. In the case of NCI-H3122, the relative viability is reported as 0.471. Work on NCI-H1437 yielded a relative viability of 0.382. Work on NCI-H1755 yielded a relative viability of 0.551.

Same assay, conditions: first compound 0.4 µM
For LK-2, the relative viability was 0.172. Cell Line NCI-H2087 has a relative viability of 0.203. H3255 gave a relative viability of 0.68. LOU-NH91 showed a relative viability of 0.695. For NCI-H2170, the relative viability was 0.713. NCI-H2405 gave a relative viability of 0.728. Work on HOP-62 yielded a relative viability of 0.407. Cell Line LU99A has a relative viability of 0.273. BEN gave a relative viability of 0.438. HARA was tested, and the relative viability was 0.128. HCC-78 was tested, and the relative viability was 0.392. For NCI-H322M, the relative viability was 0.456. With LCLC-97TM1 the relative viability was 0.221. For A-427, the relative viability was 0.21. Cell Line NCI-H441 has a relative viability of 0.59. With NCI-H1734 the relative viability was 0.288. NCI-H460 was tested, and the relative viability was 0.104. NCI-H2347 showed a relative viability of 0.595. With NCI-H1395 the relative viability was 0.718. 201T gave a relative viability of 0.935. Cell Line NCI-H1915 has a relative viability of 0.389. HCC-827 showed a relative viability of 0.377. For LXF-289, the relative viability was 0.191. NCI-H23 showed a relative viability of 0.267. Work on NCI-H647 yielded a relative viability of 0.442. CAL-12T was tested, and the relative viability was 0.185. In the case of NCI-H1651, the relative viability is reported as 0.784. In the case of EPLC-272H, the relative viability is reported as 0.232. In the case of NCI-H1355, the relative viability is reported as 0.498. NCI-H3122 showed a relative viability of 0.401. Cell Line NCI-H1437 has a relative viability of 0.377. NCI-H1755 gave a relative viability of 0.518.

Same assay, conditions: first compound 1.265 µM
Work on LK-2 yielded a relative viability of 0.175. For NCI-H2087, the relative viability was 0.215. In the case of H3255, the relative viability is reported as 0.604. Work on LOU-NH91 yielded a relative viability of 0.586. NCI-H2170 showed a relative viability of 0.648. In the case of NCI-H2405, the relative viability is reported as 0.846. HOP-62 showed a relative viability of 0.39. LU99A was tested, and the relative viability was 0.316. With BEN the relative viability was 0.548. Cell Line HARA has a relative viability of 0.139. HCC-78 gave a relative viability of 0.39. NCI-H322M showed a relative viability of 0.495. In the case of LCLC-97TM1, the relative viability is reported as 0.225. A-427 showed a relative viability of 0.238. With NCI-H441 the relative viability was 0.504. With NCI-H1734 the relative viability was 0.256. Cell Line NCI-H460 has a relative viability of 0.0609. Work on NCI-H2347 yielded a relative viability of 0.516. In the case of NCI-H1395, the relative viability is reported as 0.72. 201T was tested, and the relative viability was 0.955. NCI-H1915 showed a relative viability of 0.427. HCC-827 showed a relative viability of 0.396. LXF-289 showed a relative viability of 0.183. In the case of NCI-H23, the relative viability is reported as 0.314. NCI-H647 gave a relative viability of 0.385. With CAL-12T the relative viability was 0.261. Cell Line NCI-H1651 has a relative viability of 0.647. With EPLC-272H the relative viability was 0.247. NCI-H1355 gave a relative viability of 0.374. NCI-H3122 showed a relative viability of 0.415. Cell Line NCI-H1437 has a relative viability of 0.387. NCI-H1755 was tested, and the relative viability was 0.513.

Same assay, conditions: first compound 4 µM
LK-2 gave a relative viability of 0.148. In the case of NCI-H2087, the relative viability is reported as 0.142. For H3255, the relative viability was 0.739. Cell Line LOU-NH91 has a relative viability of 0.405. NCI-H2170 was tested, and the relative viability was 0.574. With NCI-H2405 the relative viability was 0.421. Cell Line HOP-62 has a relative viability of 0.301. Cell Line LU99A has a relative viability of 0.25. Cell Line BEN has a relative viability of 0.605. HARA gave a relative viability of 0.0974. Work on HCC-78 yielded a relative viability of 0.293. Work on NCI-H322M yielded a relative viability of 0.41. With LCLC-97TM1 the relative viability was 0.186. For A-427, the relative viability was 0.221. Cell Line NCI-H441 has a relative viability of 0.407. With NCI-H1734 the relative viability was 0.22. Work on NCI-H460 yielded a relative viability of 0.0499. In the case of NCI-H2347, the relative viability is reported as 0.335. For NCI-H1395, the relative viability was 0.721. 201T was tested, and the relative viability was 0.936. For NCI-H1915, the relative viability was 0.313. HCC-827 showed a relative viability of 0.369. With LXF-289 the relative viability was 0.195. With NCI-H23 the relative viability was 0.214. In the case of NCI-H647, the relative viability is reported as 0.138. Work on CAL-12T yielded a relative viability of 0.194. With NCI-H1651 the relative viability was 0.344. EPLC-272H showed a relative viability of 0.238. Cell Line NCI-H1355 has a relative viability of 0.384. NCI-H3122 gave a relative viability of 0.204.
